Test results taken from patent US8932597B2 (priority 2008, dated 2015).

How the values were obtained:
HuM2e antibody 23K12 = type: binding, human
[1] = test system: anti-M2 human monoclonal antibody Z3G1; type: binding

549 (SLLTEVETFIRNEWGCRCNDSSD; epitope peptide) [compound 549]
Signal (peptides that bind to 23K21 and 8I10) (HuM2e antibody 23K12): 916
Signal (peptides that show specific binding to Z3G1) [1]: 2301

352 (SLQTEVETPIRNEWGCRCNDSSD; epitope peptide) [compound 352]
Signal (peptides that bind to 23K21 and 8I10) (HuM2e antibody 23K12): 1561
Signal (peptides that show specific binding to Z3G1) [1]: 2025

710 (SLLTEVETPIRREWGCRCNDSSD; epitope peptide) [compound 710]
Signal (peptides that bind to 23K21 and 8I10) (HuM2e antibody 23K12): 707
Signal (peptides that show specific binding to Z3G1) [1]: 2278

556 (SLLTELETPIRNEWGCRCNDSSD; epitope peptide) [compound 556]
Signal (peptides that bind to 23K21 and 8I10) (HuM2e antibody 23K12): 900
Signal (peptides that show specific binding to Z3G1) [1]: 1380

675 (SLLTEVNTPIRNEWGCRCNDSSD; epitope peptide) [compound 675]
Signal (peptides that bind to 23K21 and 8I10) (HuM2e antibody 23K12): 732
Signal (peptides that show specific binding to Z3G1) [1]: 2150

667 (SLLTEVETPIRNEWGIRCNDSSD; epitope peptide) [compound 667]
Signal (peptides that bind to 23K21 and 8I10) (HuM2e antibody 23K12): 739
Signal (peptides that show specific binding to Z3G1) [1]: 2211

663 (MCLCTCVGMSLLTEV; epitope peptide) [compound 663]
Signal (peptides that bind to 23K21 and 8I10) (HuM2e antibody 23K12): 746
Signal (peptides that bind to Z3G1) [1]: 2509

602 (SLLTEVETEIRNEWGCRCNDSSD; epitope peptide) [compound 602]
Signal (peptides that bind to 23K21 and 8I10) (HuM2e antibody 23K12): 828
Signal (peptides that show specific binding to Z3G1) [1]: 2368

395 (SLLTEVETPIRNEWGCRCNNSSD; epitope peptide) [compound 395]
Signal (peptides that bind to 23K21 and 8I10) (HuM2e antibody 23K12): 926
Signal (peptides that bind to Z3G1) [1]: 2502

629 (SLLTEVMTPIRNEWGCRCNDSSD; epitope peptide) [compound 629]
Signal (peptides that bind to 23K21 and 8I10) (HuM2e antibody 23K12): 783
Signal (peptides that show specific binding to Z3G1) [1]: 2331

414 (SLLTEVETPIRNEWGCRCNDQSD; epitope peptide) [compound 414]
Signal (peptides that bind to 23K21 and 8I10) (HuM2e antibody 23K12): 739
Signal (peptides that bind to Z3G1) [1]: 2349

366 (SLLTEVETPIRNEWWCRCNDSSD; epitope peptide) [compound 366]
Signal (peptides that bind to 23K21 and 8I10) (HuM2e antibody 23K12): 1498
Signal (peptides that show specific binding to Z3G1) [1]: 2406

711 (CSLLTEVGSLCTEV; epitope peptide) [compound 711]
Signal (peptides that bind to 23K21 and 8I10) (HuM2e antibody 23K12): 707
Signal (peptides that show specific binding to Z3G1) [1]: 2409

288 (CSCLCEVGMSLLTEV; epitope peptide) [compound 288]
Signal (peptides that bind to 23K21 and 8I10) (HuM2e antibody 23K12): 2154
Signal (peptides that bind to Z3G1) [1]: 1812

657 (SLLTEVDTPIRNEWGCRCNDSSD; epitope peptide) [compound 657]
Signal (peptides that bind to 23K21 and 8I10) (HuM2e antibody 23K12): 751
Signal (peptides that show specific binding to Z3G1) [1]: 2095

686 (SLLTEVETPIRNEWGCRLNDSSD; epitope peptide) [compound 686]
Signal (peptides that bind to 23K21 and 8I10) (HuM2e antibody 23K12): 728
Signal (peptides that show specific binding to Z3G1) [1]: 2363

608 (SLLTEIETPIRNEWGCRCNDSSD; epitope peptide) [compound 608]
Signal (peptides that bind to 23K21 and 8I10) (HuM2e antibody 23K12): 816
Signal (peptides that show specific binding to Z3G1) [1]: 2016

330 (SLLTEVETPIRNEWGCRCNDYSD; epitope peptide) [compound 330]
Signal (peptides that bind to 23K21 and 8I10) (HuM2e antibody 23K12): 1694
Signal (peptides that bind to Z3G1) [1]: 2445

448 (SLLTEVETPIRNEWGCRCNDSS; epitope peptide) [compound 448]
Signal (peptides that bind to 23K21 and 8I10) (HuM2e antibody 23K12): 833
Signal (peptides that bind to Z3G1) [1]: 2325

511 (SLLCEVGCSLLTEV; epitope peptide) [compound 511]
Signal (peptides that bind to 23K21 and 8I10) (HuM2e antibody 23K12): 1044
Signal (peptides that show specific binding to Z3G1) [1]: 2562

416 (SLLTEVETPIRNEWGCRCNDTSD; epitope peptide) [compound 416]
Signal (peptides that bind to 23K21 and 8I10) (HuM2e antibody 23K12): 794
Signal (peptides that bind to Z3G1) [1]: 2394

712 (SLLTEVETPIRNDWGCRCNDSSD; epitope peptide) [compound 712]
Signal (peptides that bind to 23K21 and 8I10) (HuM2e antibody 23K12): 706
Signal (peptides that show specific binding to Z3G1) [1]: 2324

451 (CSLLTEVGMSLLTEC; epitope peptide) [compound 451]
Signal (peptides that bind to 23K21 and 8I10) (HuM2e antibody 23K12): 1326
Signal (peptides that bind to Z3G1) [1]: 2613

342 (SLLTEVETPIRNEWGCRCNSSSD; epitope peptide) [compound 342]
Signal (peptides that bind to 23K21 and 8I10) (HuM2e antibody 23K12): 1637
Signal (peptides that bind to Z3G1) [1]: 2440

268 (SLLTEVETPIRNECGCRCNDSSD; epitope peptide) [compound 268]
Signal (peptides that bind to 23K21 and 8I10) (HuM2e antibody 23K12): 682
Signal (peptides that show specific binding to Z3G1) [1]: 2554

535 (SLLTEVETPIRNEWGCRCNFSSD; epitope peptide) [compound 535]
Signal (peptides that bind to 23K21 and 8I10) (HuM2e antibody 23K12): 963
Signal (peptides that bind to Z3G1) [1]: 2509

648 (SLLTEVETPIRNEWGKRCNDSSD; epitope peptide) [compound 648]
Signal (peptides that bind to 23K21 and 8I10) (HuM2e antibody 23K12): 762
Signal (peptides that show specific binding to Z3G1) [1]: 2295

678 (SLLTEVETPIRSEWGCRCNDSSD; epitope peptide) [compound 678]
Signal (peptides that bind to 23K21 and 8I10) (HuM2e antibody 23K12): 730
Signal (peptides that show specific binding to Z3G1) [1]: 2322

264 (CSLLTEVETCVETPIRNEWGSRSNDC; epitope peptide) [compound 264]
Signal (peptides that bind to 23K21 and 8I10) (HuM2e antibody 23K12): 707
Signal (peptides that show specific binding to Z3G1) [1]: 2374

284 (ASLLTEVGSLLTCV; epitope peptide) [compound 284]
Signal (peptides that bind to 23K21 and 8I10) (HuM2e antibody 23K12): 2443
Signal (peptides that show specific binding to Z3G1) [1]: 2358

661 (SLLTEVETPIRQEWGCRCNDSSD; epitope peptide) [compound 661]
Signal (peptides that bind to 23K21 and 8I10) (HuM2e antibody 23K12): 748
Signal (peptides that show specific binding to Z3G1) [1]: 2367

595 (SLLTEVETPIRNEWGWRCNDSSD; epitope peptide) [compound 595]
Signal (peptides that bind to 23K21 and 8I10) (HuM2e antibody 23K12): 838
Signal (peptides that show specific binding to Z3G1) [1]: 2439

670 (SLLTEVETWIRNEWGCRCNDSSD; epitope peptide) [compound 670]
Signal (peptides that bind to 23K21 and 8I10) (HuM2e antibody 23K12): 736
Signal (peptides that show specific binding to Z3G1) [1]: 2146

632 (SLLTEVETPIRNEWGCRCVDSSD; epitope peptide) [compound 632]
Signal (peptides that bind to 23K21 and 8I10) (HuM2e antibody 23K12): 775
Signal (peptides that bind to Z3G1) [1]: 2366

536 (MCLCTCVGCSLLTEV; epitope peptide) [compound 536]
Signal (peptides that bind to 23K21 and 8I10) (HuM2e antibody 23K12): 954
Signal (peptides that bind to Z3G1) [1]: 2241

671 (SLLTEVETPIRNEPGCRCNDSSD; epitope peptide) [compound 671]
Signal (peptides that bind to 23K21 and 8I10) (HuM2e antibody 23K12): 735
Signal (peptides that show specific binding to Z3G1) [1]: 2279

576 (SLLTEVETPIFNEWGCRCNDSSD; epitope peptide) [compound 576]
Signal (peptides that bind to 23K21 and 8I10) (HuM2e antibody 23K12): 862
Signal (peptides that show specific binding to Z3G1) [1]: 2176

398 (SLLTEVETPIRNEWGCRCNRSSD; epitope peptide) [compound 398]
Signal (peptides that bind to 23K21 and 8I10) (HuM2e antibody 23K12): 890
Signal (peptides that bind to Z3G1) [1]: 2514

434 (SLLTEVETPIRNEWGCRCNDSYD; epitope peptide) [compound 434]
Signal (peptides that bind to 23K21 and 8I10) (HuM2e antibody 23K12): 862
Signal (peptides that bind to Z3G1) [1]: 2479

337 (SLLTEVETPIRNEWGCRCNYSSD; epitope peptide) [compound 337]
Signal (peptides that bind to 23K21 and 8I10) (HuM2e antibody 23K12): 1666
Signal (peptides that bind to Z3G1) [1]: 2475

537 (SLLTEVEPPIRNEWGCRCNDSSD; epitope peptide) [compound 537]
Signal (peptides that bind to 23K21 and 8I10) (HuM2e antibody 23K12): 953
Signal (peptides that show specific binding to Z3G1) [1]: 2522

597 (SLLTEVETGIRNEWGCRCNDSSD; epitope peptide) [compound 597]
Signal (peptides that bind to 23K21 and 8I10) (HuM2e antibody 23K12): 835
Signal (peptides that show specific binding to Z3G1) [1]: 2366

644 (SLLTEVETPIRNEWGVRCNDSSD; epitope peptide) [compound 644]
Signal (peptides that bind to 23K21 and 8I10) (HuM2e antibody 23K12): 764
Signal (peptides that show specific binding to Z3G1) [1]: 2444

287 (MSLLTEVGMSLLTEV; epitope peptide) [compound 287]
Signal (peptides that bind to 23K21 and 8I10) (HuM2e antibody 23K12): 2267
Signal (peptides that bind to Z3G1) [1]: 2878

599 (SLLTEVERPIRNEWGCRCNDSSD; epitope peptide) [compound 599]
Signal (peptides that bind to 23K21 and 8I10) (HuM2e antibody 23K12): 834
Signal (peptides that show specific binding to Z3G1) [1]: 2131

353 (SLLTEVGCSLLTEC; epitope peptide) [compound 353]
Signal (peptides that bind to 23K21 and 8I10) (HuM2e antibody 23K12): 1556
Signal (peptides that show specific binding to Z3G1) [1]: 2380

226 (CTEVETPIRNEWGSRSCSLLTEVETC; epitope peptide) [compound 226]
Signal (peptides that bind to 23K21 and 8I10) (HuM2e antibody 23K12): 891
Signal (peptides that show specific binding to Z3G1) [1]: 2140

420 (SLLTEVETPIRNEWGCRCNDSCD; epitope peptide) [compound 420]
Signal (peptides that bind to 23K21 and 8I10) (HuM2e antibody 23K12): 725
Signal (peptides that bind to Z3G1) [1]: 2269

488 (SLLTEVETPIHNEWGCRCNDSSD; epitope peptide) [compound 488]
Signal (peptides that bind to 23K21 and 8I10) (HuM2e antibody 23K12): 1112
Signal (peptides that show specific binding to Z3G1) [1]: 2121
